Patent EP0319906A2, “Novel quinoline derivatives, processes for preparation thereof and antibacterial agent containing them” (Dainippon Pharmaceutical Co., Ltd., priority 1987, dated 1989)
Converted amounts (≈) assume the structure as drawn. Where two headings read alike, the source gives them in different places.

Experiments:
[1] = tested on: E. coli NIHJ JC-2; test: In vitro antibacterial activity, twofold agar-dilution MIC; assay type: cell-based; details: Escherichia coli, read-out: minimum inhibitory concentrations (MIC)
Procedure: (§1) The figures in the table show minimum inhibitory concentrations (MIC) (µg/ml), calculated for free base. […] One loopful of an overnight culture of test organisms in Mueller-Hinton broth was inoculated onto 10 ml drug- containing agar layers in petri dishes. Bacterial inocula contained approximately 10⁶ colonyl-forming units. […] The MIC was defined as the lowest drug concentration which prevented visible bacterial growth.

[2] = tested on: E. coli P-5101; test: as above; assay type: cell-based; details: Escherichia coli, read-out: minimum inhibitory concentrations (MIC)
Procedure: as §1

[3] = tested on: P. aeruginosa 12; test: as above; assay type: cell-based; details: read-out: minimum inhibitory concentrations (MIC)
Procedure: as §1

[4] = tested on: S. aureus 209 JC-1; test: as above; assay type: cell-based; details: Staphylococcus aureus, read-out: minimum inhibitory concentrations (MIC)
Procedure: as §1

[5] = tested on: S. aureus No. 80; test: as above; assay type: cell-based; details: Staphylococcus aureus, read-out: minimum inhibitory concentrations (MIC)
Procedure: as §1

[6] = tested on: S. aureus Terajima; test: as above; assay type: cell-based; details: Staphylococcus aureus, read-out: minimum inhibitory concentrations (MIC)
Procedure: as §1

[7] = tested on: S. epidermidis No. 8; test: as above; assay type: cell-based; details: Staphylococcus epidermidis, read-out: minimum inhibitory concentrations (MIC)
Procedure: as §1

[8] = tested on: S. marcescens S-9; test: as above; assay type: cell-based; details: Serratia marcescens, read-out: minimum inhibitory concentrations (MIC)
Procedure: as §1

[9] = tested on: S. pyogenes A65; test: as above; assay type: cell-based; details: Streptococcus pyogenes, read-out: minimum inhibitory concentrations (MIC)
Procedure: as §1

[10] = in vivo; details: mouse, po, orally given to male mice (ddY), dead mice counted after 7 days, Behrens-Kaerber method, read-out: LD₅₀
Procedure: A suspension containing each of compounds of this invention in various concentrations was orally given to male mice (ddY) at a dose of 0.1 ml per 10 g of body weight. The number of dead mice was counted after 7 days, and the value of median lethal dose (LD₅₀, mg/kg) was calculated in accordance with the Behrens-Kaerber method.

[11] = tested on: C. Trachomatics G/ur 1242; test: Antichlamydia activity, MIC in McCoy cells (inclusion bodies); assay type: cell-based; details: read-out: minimum inhibitory concentrations (MIC)
Procedure: (§2) The figures in the table show minimum inhibitory concentrations (MIC), (μg/ml), calculated for free base. Minimum inhibitory concentrations (MIC) were determined as follows. […] The cells were trypsinized and suspended in the same culture medium at a cell concentration of 1-2 x 10^5 cells/ml. One ml of the cell suspension was pipetted into flat-bottomed plastic tubes (14 mm in diameter) containing a cover slip (12 mm in diameter). The tubes were incubated in 5 % CO2-air at 36 °C for 20 hours. One-half ml of a chlamydial suspension (ca. 1-4 x 103 inclusion body forming units) was added into each tube, which was then centrifuged at 1500 x g for 60 minutes. The tubes were incubated for 1 hour at 36 °C. […] After further incubation at 36 °C for 40-48 hours, the cells on the cover glasses were stained with the Giemsa's solution. […] The MIC was defined as the lowest drug concentration where there were no inclusion bodies in all the cells on the cover slip.

[12] = tested on: C. Trachomatics G/ur 1317; test: as above; assay type: cell-based; details: read-out: minimum inhibitory concentrations (MIC)
Procedure: as §2

[13] = tested on: C. Trachomatics G/ur 1448; test: as above; assay type: cell-based; details: read-out: minimum inhibitory concentrations (MIC)
Procedure: as §2

[14] = tested on: C. Trachomatics G/ur 931; test: as above; assay type: cell-based; details: read-out: minimum inhibitory concentrations (MIC)
Procedure: as §2

[15] = tested on: A. laidlawii PG-8; test: Antimycoplasma activity, twofold agar dilution MIC; assay type: cell-based; details: Acholeplasma laidlawii, PG8, 48 h, read-out: minimum inhibitory concentrations (MIC)
Procedure: (§3) The figures in the table show minimum inhibitory concentrations (MIC), (μg/ml), calculated for free base. Minimum inhibitory concentrations (MIC) were determined by the twofold agar dilution method. The media used were Chanock broth and agar [PPLD broth and agar (Difco) supplemented with 20 % horse serum and 10 % fresh yeast extract]. A 2-3 day broth culture of organisms was diluted with Chanock broth to a cell density of about 10^6 cells/ml. One loopful (about […]) of the organism dilution was spotted onto 10-ml drug containing Chanock agar in petri dishes using a multiple inoculator ([…] International). […] Incubation was performed anaerobically using the […] anaerobic system (BBL) for M. buccale, M. fermentans, M. hominis, M. orale and M. salivarium, and aerobically for other Mycoplasma spp. The MIC was defined as the lowest compound concentration at which no growth of organism was detected.

[16] = tested on: M. arginini G-230; test: Antimycoplasma activity, twofold agar dilution MIC; assay type: cell-based; details: 48 h, read-out: minimum inhibitory concentrations (MIC)
Procedure: as §3

[17] = tested on: M. buccale CH-20249; test: Antimycoplasma activity, twofold agar dilution MIC; assay type: cell-based; details: 48 h, read-out: minimum inhibitory concentrations (MIC)
Procedure: as §3

[18] = tested on: M. fermentans PG-18; test: Antimycoplasma activity, twofold agar dilution MIC; assay type: cell-based; details: Mycoplasmopsis fermentans, PG18, 48 h, read-out: minimum inhibitory concentrations (MIC)
Procedure: as §3

[19] = tested on: M. hominis PG-21; test: Antimycoplasma activity, twofold agar dilution MIC; assay type: cell-based; details: Metamycoplasma hominis, PG21, 48 h, read-out: minimum inhibitory concentrations (MIC)
Procedure: as §3

[20] = tested on: M. hyorhinis BST-7; test: Antimycoplasma activity, twofold agar dilution MIC; assay type: cell-based; details: Mesomycoplasma hyorhinis, BST7, 48 h, read-out: minimum inhibitory concentrations (MIC)
Procedure: as §3

[21] = tested on: M. orale CH-19299; test: Antimycoplasma activity, twofold agar dilution MIC; assay type: cell-based; details: po, 48 h, read-out: minimum inhibitory concentrations (MIC)
Procedure: as §3

[22] = tested on: M. pneumoniae Mac; test: Antimycoplasma activity, twofold agar dilution MIC; assay type: cell-based; details: Mycoplasmoides pneumoniae, 168 h, read-out: minimum inhibitory concentrations (MIC)
Procedure: as §3

[23] = tested on: M. salivarium PG-20; test: Antimycoplasma activity, twofold agar dilution MIC; assay type: cell-based; details: 48 h, read-out: minimum inhibitory concentrations (MIC)
Procedure: as §3

[24] = NIHJJC2, E. coli NIHJ JC-2, Mueller-Hinton agar, 20-hour incubation at 37 °C, calculated for free base
[25] = P5101, E. coli P-5101, Mueller-Hinton agar, 20-hour incubation at 37 °C, calculated for free base
[26] = Pseudomonas aeruginosa, P. aeruginosa 12, Mueller-Hinton agar, 20-hour incubation at 37 °C, calculated for free base
[27] = 209JC1, S. aureus 209 JC-1, Mueller-Hinton agar, 20-hour incubation at 37 °C, calculated for free base
[28] = S. aureus No. 80, Mueller-Hinton agar, 20-hour incubation at 37 °C, calculated for free base
[29] = S. aureus Terajima, Mueller-Hinton agar, 20-hour incubation at 37 °C, calculated for free base
[30] = S. epidermidis No. 8, Mueller-Hinton agar, 20-hour incubation at 37 °C, calculated for free base
[31] = S9, S. marcescens S-9, Mueller-Hinton agar, 20-hour incubation at 37 °C, calculated for free base
[32] = S. pyogenes A65, Mueller-Hinton agar, 20-hour incubation at 37 °C, calculated for free base
[33] = C. Trachomatics G/ur 1242, McCoy cells, 36 °C for 40-48 hours, calculated for free base
[34] = C. Trachomatics G/ur 1317, McCoy cells, 36 °C for 40-48 hours, calculated for free base
[35] = C. Trachomatics G/ur 1448, McCoy cells, 36 °C for 40-48 hours, calculated for free base
[36] = C. Trachomatics G/ur 931, McCoy cells, 36 °C for 40-48 hours, calculated for free base

Cc1c(F)c(N2CCNCC2)cc2c1c(=O)c(C(=O)O)cn2C1CC1 [Compound 5, 1-cyclopropyl-6-fluoro-5-methyl-7-(1-piperazinyl)-1,4-dihydro-4-oxoquinoline-3-carboxylic acid]
MIC [1, 24]: 0.0125 µg/mL (≈ 0.0362 µM)
MIC [2, 25]: 0.0125 µg/mL (≈ 0.0362 µM)
MIC [3, 26]: 0.1 µg/mL (≈ 0.29 µM)
MIC [4, 27]: 0.05 µg/mL (≈ 0.145 µM)
MIC [5, 28]: 0.0125 µg/mL (≈ 0.0362 µM)
MIC [6, 29]: 0.025 µg/mL (≈ 0.0724 µM)
MIC [7, 30]: 0.025 µg/mL (≈ 0.0724 µM)
MIC [8, 31]: 0.2 µg/mL (≈ 0.579 µM)
MIC [9, 32]: 0.39 µg/mL (≈ 1.13 µM)
LD50 at 7 days [10]: > 2000 mg/kg

Cl.O=C(O)c1cn(C2CC2)c2cc(N3CCNCC3)c(F)cc2c1=O [Compound A, 1-cyclopropyl-6-fluoro-7-(1-piperazinyl)-1,4-dihydro-4-oxoquinoline-3-carboxylic acid hydrochloride]
MIC ([1]; NIHJJC2, 20 h): 0.0063 µg/mL
MIC ([2]; P5101, 20 h): 0.0063 µg/mL
MIC ([3]; Pseudomonas aeruginosa, 12, 20 h): 0.1 µg/mL
MIC ([4]; 209JC1, 20 h): 0.1 µg/mL
MIC ([5]; NO.80, 20 h): 0.39 µg/mL
MIC ([6]; 20 h): 0.1 µg/mL
MIC ([7]; NO.8, 20 h): 0.1 µg/mL
MIC ([8]; S9, 20 h): 0.05 µg/mL
MIC ([9]; A65, 20 h): 0.2 µg/mL
MIC [11]: 1 µg/mL
MIC [12]: 2 µg/mL
MIC [13]: 1 µg/mL
MIC [14]: 1 µg/mL
MIC [15]: 0.39 µg/mL
MIC [16]: 0.39 µg/mL
MIC [17]: 0.39 µg/mL
MIC [18]: 0.2 µg/mL
MIC [19]: 1.56 µg/mL
MIC [20]: 0.39 µg/mL
MIC [21]: 1.56 µg/mL
MIC [22]: 0.78 µg/mL
MIC [23]: 3.13 µg/mL

O=C(O)c1cn(C2CC2)c2c(F)c(N3CCNCC3)c(F)cc2c1=O [Compound B, 1-cyclopropyl-6,8-difluoro-7-(1-piperazinyl)-1,4-dihydro-4-oxoquinoline-3-carboxylic acid, reference compound]
MIC [1, 24]: 0.0063 µg/mL (≈ 0.018 µM)
MIC [2, 25]: 0.0063 µg/mL (≈ 0.018 µM)
MIC [3, 26]: 0.1 µg/mL (≈ 0.286 µM)
MIC [4, 27]: 0.1 µg/mL (≈ 0.286 µM)
MIC [5, 28]: 0.2 µg/mL (≈ 0.573 µM)
MIC [6, 29]: 0.1 µg/mL (≈ 0.286 µM)
MIC [7, 30]: 0.1 µg/mL (≈ 0.286 µM)
MIC [8, 31]: 0.05 µg/mL (≈ 0.143 µM)
MIC [9, 32]: 0.39 µg/mL (≈ 1.12 µM)
MIC [11, 33]: 0.39 µg/mL (≈ 1.12 µM)
MIC [12, 34]: 0.39 µg/mL (≈ 1.12 µM)
MIC [13, 35]: 0.39 µg/mL (≈ 1.12 µM)
MIC [14, 36]: 0.39 µg/mL (≈ 1.12 µM)

Cc1c(F)c(N2CCNCC2)c(C#N)c2c1c(=O)c(C(=O)O)cn2C1CC1 [Compound D, 8-cyano-1-cyclopropyl-6-fluoro-5-methyl-7-(1-piperazinyl)-1,4-dihydro-4-oxoquinoline-3-carboxylic acid, reference compound]
MIC [1, 24]: 0.0125 µg/mL (≈ 0.0337 µM)
MIC [2, 25]: 0.0125 µg/mL (≈ 0.0337 µM)
MIC [3, 26]: 0.39 µg/mL (≈ 1.05 µM)
MIC [4, 27]: 0.1 µg/mL (≈ 0.27 µM)
MIC [5, 28]: 0.1 µg/mL (≈ 0.27 µM)
MIC [6, 29]: 0.1 µg/mL (≈ 0.27 µM)
MIC [7, 30]: 0.1 µg/mL (≈ 0.27 µM)
MIC [8, 31]: 0.39 µg/mL (≈ 1.05 µM)
MIC [9, 32]: 1.56 µg/mL (≈ 4.21 µM)
MIC [11, 33]: 3.13 µg/mL (≈ 8.45 µM)
MIC [12, 34]: 3.13 µg/mL (≈ 8.45 µM)
MIC [13, 35]: 3.13 µg/mL (≈ 8.45 µM)
MIC [14, 36]: 1.56 µg/mL (≈ 4.21 µM)
